Data reported in PubChem BioAssay (NCI).
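How tested: cells in 96-well plates exposed to compound for 48 hours at five concentrations. TGI: total growth inhibition.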

Tested on: P388/ADR leukemia
Assay: NCI tumour cell line growth inhibition, 48 h

CCC/C=C/C=C\C(=O)O[C@@H]1[C@@H](C)[C@]2(O)[C@@H]3C=C(C)C(=O)[C@H]3CC(COC(C)=O)=C[C@H]2[C@@H]2C(C)(C)[C@]12OC(C)=O
TGI: 0.3 mM

Nc1n[nH]c(N)n1
TGI: 8.07 mM

NCCCC(N)(C(=O)O)C(F)F (stereo not drawn)
TGI: > 5 mM
